Experimental data taken from PubChem BioAssay (NCI).
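Method: 48-hour compound exposure of cells in 96-well plates, five concentrations, linear interpolation of endpoints. At the GI50, growth is halved. TGI marks complete inhibition of growth.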

Tests used:
Assay in all cases: DTP human tumour cell line panel, 48 h
[1] = tested on: SNB-78 CNS
[2] = tested on: KM20L2 colon
[3] = tested on: DLD-1 colon
[4] = tested on: XF 498 CNS
[5] = tested on: HOP-18 NSCLC
[6] = tested on: LXFL 529 NSCLC
[7] = tested on: DMS 273 small cell lung
[8] = tested on: RXF-631 renal
[9] = tested on: MDA-N

SMILES: CCOc1ccc(NC(=O)CCC(=O)NN)cc1
- TGI [1]: > 100 µM
- TGI [2]: > 100 µM
- TGI [3]: > 100 µM
- TGI [4]: 95 µM
- TGI [5]: > 100 µM
- TGI [6]: > 100 µM
- TGI [7]: > 100 µM

SMILES: OC1C2C=CCC1CCC2 (stereo not drawn)
- TGI [1]: > 100 µM
- TGI [8]: > 100 µM
- TGI [2]: > 100 µM
- TGI [3]: > 100 µM
- TGI [4]: > 100 µM
- TGI [5]: > 100 µM
- TGI [7]: > 100 µM

SMILES: C=C=[CH][Sn]([c]1ccccc1)([c]1ccccc1)[c]1ccccc1
- GI50 [1]: 3.1 µM
- TGI [1]: 9.29 µM
- GI50 [2]: 2.02 µM
- TGI [2]: 4 µM
- GI50 [3]: 1.48 µM
- TGI [3]: 4.15 µM
- GI50 [6]: 1.58 µM
- TGI [6]: 3.02 µM

SMILES: NC(=O)CCC(NC(=O)C(F)(F)F)C(=O)O (stereo not drawn)
- TGI [1]: > 100 µM
- TGI [2]: > 100 µM
- TGI [3]: > 100 µM
- TGI [4]: > 100 µM
- TGI [5]: > 100 µM
- TGI [6]: > 100 µM
- TGI [7]: > 100 µM

SMILES: c1cnc2c(c1)Nc1cnncc1S2
- TGI [9]: > 100 µM

SMILES: O=P1(O)c2ccccc2CS(=O)(=O)Cc2ccccc21
- TGI [9]: > 100 µM

SMILES: CCOC(=O)CNC(=O)C(CSC(=O)N(C)O)NC(=O)CCC(N)C(=O)O (stereo not drawn)
- GI50 [2]: > 2000 µM
- TGI [2]: > 2000 µM
- GI50 [3]: > 2000 µM
- GI50 [5]: > 2000 µM
- TGI [5]: > 2000 µM
- GI50 [6]: > 2000 µM
- TGI [6]: > 2000 µM
- GI50 [7]: > 2000 µM

SMILES: CCOC(=O)C1(Cc2ccc3ccccc3c2)CCCCCN1 (stereo not drawn)
- TGI [1]: > 100 µM
- TGI [2]: 57 µM
- TGI [3]: 56.9 µM
- TGI [4]: 41.2 µM
- TGI [5]: > 100 µM
- TGI [6]: > 100 µM
- TGI [7]: 38.4 µM

SMILES: Cc1cc(C)c2[s+]snc2c1
- TGI [1]: > 100 µM
- TGI [8]: > 100 µM
- TGI [2]: > 100 µM
- TGI [3]: > 100 µM
- TGI [4]: > 100 µM
- TGI [5]: > 100 µM
- TGI [6]: > 100 µM
- TGI [7]: > 100 µM

SMILES: O=C1c2cccc3cc([N+](=O)[O-])cc(c23)C(=O)N1O
- TGI [9]: > 100 µM

SMILES: O=C1c2ccccc2C(=O)c2sc(Nc3ccc(Cl)c(Cl)c3)nc21
- TGI [1]: 6.68 µM
- TGI [8]: 31.4 µM
- TGI [2]: 41.7 µM
- TGI [3]: 4.66 µM
- TGI [4]: 6.04 µM
- TGI [5]: 14.3 µM
- TGI [6]: 3.53 µM
- TGI [7]: 22.1 µM

SMILES: C[N+]1=c2c3cccc4cccc(c(=O)n2CCC1)c43
- TGI [1]: 94.6 µM
- TGI [2]: 47.2 µM
- TGI [3]: 46.9 µM
- TGI [4]: 38 µM
- TGI [5]: > 100 µM
- TGI [6]: 40.7 µM
- TGI [7]: 56.7 µM

SMILES: CC1=NN(c2ccccc2)C(=O)C1N=Nc1ccc(Br)c(C)c1 (stereo not drawn)
- TGI [1]: > 100 µM
- TGI [8]: > 100 µM
- TGI [2]: > 100 µM
- TGI [3]: > 100 µM
- TGI [4]: > 100 µM
- TGI [5]: > 100 µM
- TGI [6]: > 100 µM
- TGI [7]: > 100 µM

SMILES: Nn1c(N=Nc2c(O)[nH]c3ccccc23)n[nH]c1=S
- TGI [1]: > 100 µM
- TGI [2]: > 100 µM
- TGI [3]: > 100 µM
- TGI [4]: 94 µM
- TGI [5]: > 100 µM
- TGI [6]: > 100 µM

SMILES: CP(C)C.[Ag][I]
- TGI [1]: 96.1 µM
- TGI [8]: > 100 µM
- TGI [2]: > 100 µM
- TGI [3]: > 100 µM
- TGI [4]: 30.9 µM
- TGI [5]: > 100 µM
- TGI [6]: 31.8 µM
- TGI [7]: > 100 µM

SMILES: Nc1cccc2nsnc12
- TGI [9]: > 100 µM

SMILES: NNC(=S)N/N=C/C(Cl)=C(\Cl)C(=O)O
- TGI [1]: > 100 µM
- TGI [2]: > 100 µM
- TGI [3]: > 100 µM
- TGI [4]: > 100 µM
- TGI [6]: > 100 µM
- TGI [7]: > 100 µM

SMILES: CC12C(=O)N(CCN)C(=O)C1C1c3ccccc3C2c2ccccc21 (stereo not drawn)
- TGI [1]: > 100 µM
- TGI [2]: > 100 µM
- TGI [3]: > 100 µM
- TGI [4]: > 100 µM
- TGI [5]: > 100 µM
- TGI [6]: > 100 µM
- TGI [7]: > 100 µM

SMILES: OC(c1ccccc1)c1c(-c2ccccc2)oc(-c2ccccc2)c1C(O)c1ccccc1 (stereo not drawn)
- TGI [9]: 24.6 µM

SMILES: CC[O-].CC[O-].O=C([CH-]C(=O)c1ccccc1)c1ccccc1.O=C([CH-]C(=O)c1ccccc1)c1ccccc1.[Ti+4]
- GI50 [2]: > 100 µM
- TGI [2]: > 100 µM

SMILES: CC(C)(C)C[P+](C)(C)c1ccccc1
- TGI [1]: > 100 µM
- TGI [8]: > 100 µM
- TGI [2]: > 100 µM
- TGI [3]: > 100 µM
- TGI [5]: > 100 µM
- TGI [6]: > 100 µM
- TGI [7]: > 100 µM

SMILES: Cc1cc2c(cc1C)[n+]([O-])c(-c1c(Cl)cccc1Cl)c(N)[n+]2[O-]
- TGI [1]: > 100 µM
- TGI [8]: 35.7 µM
- TGI [2]: > 100 µM
- TGI [3]: > 100 µM
- TGI [5]: 86.4 µM
- TGI [6]: > 100 µM
- TGI [7]: 86.3 µM

SMILES: Cc1cccc(N=C2NC(=O)C(CC(=O)Nc3ccc(Cl)cc3C)S2)c1 (stereo not drawn)
- TGI [8]: > 100 µM
- TGI [2]: > 100 µM
- TGI [3]: > 100 µM
- TGI [5]: > 100 µM
- TGI [6]: > 100 µM
- TGI [7]: > 100 µM

SMILES: CCC[CH2][Sn]1([CH2]CCC)[O]C(=O)c2cc(C)ccc2[O]1
- GI50 [1]: 0.368 µM
- TGI [1]: 1.01 µM
- GI50 [2]: 1.35 µM
- TGI [2]: 2.64 µM
- GI50 [3]: 0.537 µM
- TGI [3]: 1.83 µM
- GI50 [6]: 0.129 µM
- TGI [6]: 0.336 µM
- GI50 [7]: 0.519 µM
- TGI [7]: 1.73 µM

SMILES: NC(=O)NC(=O)C1CCCCC1C(=O)O (stereo not drawn)
- TGI [9]: > 100 µM

SMILES: N#CC12Cc3ccc4c(c3-c3cccc(c31)CCN2C(=O)c1ccccc1)OCO4 (stereo not drawn)
- TGI [1]: > 100 µM
- TGI [2]: > 100 µM
- TGI [3]: > 100 µM
- TGI [4]: > 100 µM
- TGI [5]: > 100 µM
- TGI [6]: > 100 µM
- TGI [7]: > 100 µM

SMILES: CC12OC3CC(O1)C1(C=O)C4CCC5(C)C(c6ccc(=O)oc6)CCC5(O)C4CCC1(C3)O2 (stereo not drawn)
- TGI [1]: 3.66 µM
- TGI [2]: 1.31 µM
- TGI [3]: 0.483 µM
- TGI [5]: 0.748 µM
- TGI [6]: 0.432 µM
- TGI [7]: 0.235 µM

SMILES: CC[C@@]1(OC(=O)CN)C(=O)OCc2c1cc1n(c2=O)Cc2cc3c(N)c4c(cc3nc2-1)OCO4
- GI50 [9]: 0.0127 µM
- TGI [9]: > 100 µM

SMILES: CC(C)[O-].CC(C)[O-].[O-]c1cccc2cccnc12.[O-]c1cccc2cccnc12.[Ti+4]
- TGI [2]: > 100 µM
- GI50 [3]: 4.97 µM
- TGI [5]: > 100 µM

SMILES: O=C1c2ccccc2C(=O)c2c(NC(=O)c3ccc4c5c(ncnc35)-c3ccccc3C4=O)cccc21
- TGI [9]: > 100 µM

SMILES: CS(=O)(=O)c1nc(Cl)c(Cl)c(C#N)c1Cl
- TGI [1]: > 36 µM
- TGI [8]: 38.9 µM
- TGI [9]: 3.5 µM
- TGI [2]: 20.8 µM
- TGI [3]: 3.13 µM
- TGI [4]: 7.93 µM
- TGI [5]: 11.5 µM
- TGI [6]: 2.99 µM
- TGI [7]: 24.6 µM

SMILES: COC(=O)C1=Cc2c(OC)cc(OC)c(OC)c2[C@H](c2cc(OC)c(OC)cc2OC)C1C(=O)OC (stereo partly drawn)
- TGI [1]: > 100 µM
- TGI [8]: > 100 µM
- TGI [2]: > 100 µM
- TGI [3]: > 100 µM
- TGI [4]: > 100 µM
- TGI [6]: > 100 µM
- TGI [7]: > 100 µM

SMILES: CCc1oc2ccc(OC)c3c2c1C=CC=C3
- TGI [1]: > 100 µM
- TGI [3]: > 100 µM
- TGI [6]: > 100 µM
- TGI [7]: > 100 µM

SMILES: O=c1[nH]c2c(O)cccc2c2cc3c(c(O)c12)OCO3
- TGI [1]: 80.4 µM
- TGI [2]: 40.4 µM
- TGI [3]: 62.4 µM
- TGI [4]: 56 µM
- TGI [5]: 0.877 µM
- TGI [6]: 73.1 µM
- TGI [7]: 59.3 µM

SMILES: CC(C)NC(=O)O/N=C1\CCC2[C@@H]3CC=C4C[C@@H](OC(=O)NC(C)C)CC[C@]4(C)C3CC[C@]12C (stereo partly drawn)
- TGI [1]: 6.77 µM
- TGI [8]: 3.57 µM
- TGI [2]: 9.59 µM
- TGI [3]: > 25.3 µM
- TGI [5]: 4.67 µM
- TGI [6]: 2.13 µM
- TGI [7]: 2.82 µM

SMILES: CCOC(=O)C1CC/C(=C(/C#N)C(=O)OC)N1 (stereo not drawn)
- TGI [1]: > 100 µM
- TGI [2]: > 100 µM
- TGI [3]: > 100 µM
- TGI [4]: > 100 µM
- TGI [6]: > 100 µM
- TGI [7]: > 100 µM

SMILES: CCOC(=O)N1CCC(=O)C[C@@H]1C/C=C/P1(=O)O[C@H](c2ccccc2)C(C)N1C(C)C (stereo partly drawn)
- TGI [1]: > 100 µM
- TGI [2]: > 100 µM
- TGI [6]: > 100 µM
- TGI [7]: > 100 µM
